From patent publication US10947261B2, “Tetravalent platinum compound-bicyclic double-bond-containing amphiphilic polymer prodrug, nano-micelle, preparation method and application thereof” (ANHUI UNIVERSITY, priority 2017, dated 2021)

Tested on: MCF-7, A549 and HepG2 cells
Assay: Cellular uptake of drug-loaded micelles (confocal laser, flow cytometer)
Format: cell-based, human
Settings: doxorubicin 16 μg/mL, 4 h
Method: Cell culture: human breast cancer cells (MCF-7), human lung adenocarcinoma cells (A549) and human hepatoma cells (HepG2) were respectively added to a standard 6-well plate, and about 10^5 cells are in each well. After overnight culture, the culture medium was removed, and 1.8 mL of fresh medium was added to prepare three cell culture solutions.
Drug treatment: 0.2 mL of each of the above two drugs (the final concentration of doxorubicin was 16 μg/mL) were added to the three cell culture solutions, respectively, and the cells were cultured for 4 h; subsequently, the culture medium was removed, and the cells were washed twice with PBS, fixed with 4% paraformaldehyde solution (about 5 min), and then washed twice with PBS; then, the nuclei of cells were stained with nuclear staining reagent (5 min), and the cells were washed twice with PBS.

## COc1cccc2c1C(=O)c1c(O)c3c(c(O)c1C2=O)C[C@@](O)(C(=O)CO)C[C@@H]3O[C@H]1C[C@H](N)[C@H](O)[C@H](C)O1 [doxorubicin]
  cellular uptake: cellular uptake can effectively occur
